Experimental data: patent US9981901B2, “IRE-1α inhibitors” (FOSUN ORINOVE PHARMATECH, INC., priority 2007, dated 2018)

Legend:
[1] = test system: RPMI-8226 multiple myeloma cells; assay: Proliferation of multiple myeloma cells (CellTiter-Glo); type: cell-based, human; details: RPMI8226, 24 hours, 100 μM to 0 μM
Protocol: FIG. 5. Graph showing inhibition of proliferation of multiple myeloma cells by IRE-1α inhibitor 11-28 (Example 11). RPMI-8226 multiple myeloma cells were seeded at 20,000 cells per well in RPMI culture medium containing 1% FBS and the required antibiotics. The plate was incubated overnight at 37° C., 95% air, 5% CO2. The following day, compound 11-28 or medium alone was added to wells, resulting in a final volume of 100 μl per well. The compound concentration ranged from 100 μM to 0 μM, with compounds diluted by a factor of 4. After addition of compound, the plate was incubated at 37° C., 95% air, 5% CO2 for 24 hours. Cell proliferation was measured using the CellTiter-Glo assay (Promega), following the manufacturer's instructions.
Proliferation assays using myeloma cell lines (U266, RPMI8226 and MM.1s) are used to determine ED50. Compounds are used as single agents and in combination with other chemotherapeutic drugs.

[2] = test system: phosphorylated IRE-1α and XBP1-splicing in RPMI8226 cells; assay: Western blot and RT-PCR of bortezomib-treated RPMI8226 cells; type: cell-based, human; details: 24 hour treatment
[3] = test system: human myeloma RPMI8226 tumor xenografts; assay: RPMI8226 xenograft efficacy model; type: in vivo, mouse; details: SCID mice, 0.75 mg/kg IV twice weekly
Protocol: Mice are monitored for tumor growth, regression and general health. Tumors are collected and characterized by immunohistochemistry and/or FACS analysis. Tumor growth is measured by calipers, ultrasound, or by abdominal lavage. Biomarkers in the blood or tumor can evaluated (primarily XBP-1 splicing).

primary murine B cells = assay: IgM secretion after LPS stimulation of primary B cells; type: cell-based, mouse; details: added at beginning of stimulation and again at 24 hours; all doses down to 100 nM
Protocol: FIG. 9. Inhibition of IgM secretion after LPS stimulation of primary murine B cells with selected IRE-1α inhibitors. […] However, compounds had little effect when at added after 40 hours of stimulation; only slight inhibition at the highest dose. Methods were performed as previously described by Iwakoshi et al., Nature 4, 321-29, 2003 for B cell stimulation, plasma cell differentiation and IgM secretion. Primary B cells were Isolated from BALB/c splenocytes using mouse CD43 Microbeads (Miltenyi cat#130-049-801) with 1×10^6 cells per treatment. Purified B cells were stimulated in B Cell Media at a final density of 1×10^6/ml/well in 24-well plates with 20 μg/ml LPS (Sigma cat# L4391). IRE-1α inhibitor compound 17-1 was added at various concentrations (50 μM, 10 μM, 2 μM, 0.4 μM and 0.08 μM) at specified time points (t=0, t=24 hr, t=40 hr, etc.) Cells were incubated for 48 hr at 37° C. At end of the incubation, cells were spun in a plate at 1500 rpm/3 min. Supernatants were collected for quantitation for IgM secretion using a mouse IgM ELISA Kit (Bethyl Labs cat# E90-101). B Cell medium included RPMI+10% FBS supplemented with NEAA, HEPES, NaPyr, PSQ, and β-mercaptoethanol.

COc1cc(-c2cccs2)cc(C=O)c1O [11-28]
inhibition of cell proliferation [1]: inhibits the proliferation

CC(C)C[C@H](NC(=O)[C@H](Cc1ccccc1)NC(=O)c1cnccn1)B(O)O [bortezomib, [(1R)-3-methyl-1-[[(2S)-1-oxo-3-phenyl-2-[(pyrazinylcarbonyl)amino]propyl]amino]butyl] boronic acid]
XBP1-splicing [2]: increases | levels of phosphorylated IRE-1α [2]: increases | tumor growth [3]: suppression of tumor growth

CN(C)C(=O)c1ccc(-c2ccc3c(C=O)c(O)ccc3c2)cc1 [compound 17-1, 4-(5-formyl-6-hydroxynaphthalen-2-yl)-N,N-dimethylbenzamide]
IgM secretion (primary murine B cells): blocked IgM secretion
